The subject of the test is MOLM-13 cells. In words: Cellular fluorescence assay (resazurin, 72 hours). Type of test: cell-based. How it is done: MOLM-13 cells were grown in suspension in T75 flasks in RPMI medium with 10% fetal bovine serum (FBS) at 37° C. with 5% CO2. 40 μL of MOLM-13 cells were plated into columns 1-22 of black, clear bottom, 384 well plates at a density of 1,500 cells per well in PRMI with 10% FBS. Columns 23 and 24 were filled with 40 μL of media as a positive control. 100 nL of compounds dissolved in DMSO were pin transferred into columns 3-22 of the 384 well plate. Columns 1 and 2 served as negative control wells. Plates were incubated for 72 hours at 37° C. with 5% CO2. After incubation, the cells were given 10 μL of 2 mM Resazurin in RPMI with 10% FBS and incubated for 3 hours. The fluorescence intensity was read on a Molecular Devices SpectraMax i3x plate reader (Excitation wavelength=535 nm, Emission wavelength=585 nm).

pIC50: −log10 of the molar value. Non-standard residues stand in square brackets, D forms with d. Residues, ends and D or L forms follow the SMILES beside them. Ala(4-thiazolyl) = N[C@@H](Cc1cscn1)C(=O)O; Phe(4-Cl) = N[C@@H](Cc1ccc(Cl)cc1)C(=O)O; Phe(4-F) = N[C@@H](Cc1ccc(F)cc1)C(=O)O; NMeF = CN[C@@H](Cc1ccccc1)C(=O)O; hSer = N[C@@H](CCO)C(=O)O; NMeA = CN[C@@H](C)C(=O)O; dNMeA = CN[C@H](C)C(=O)O; Nme = COCCNCC(=O)O

By pIC50 is commonly meant the IC50 on a negative log10 scale, so that one unit is a factor of ten. A higher pIC50 goes with a low IC50. The compound `COCC[C@@H]1NC(=O)[C@H]2CCCN2C(=O)[C@H](Cc2ccccc2)N(C)C(=O)[C@H](Cc2ccc(Cl)cc2)NC(=O)[C@H]([C@@H](C)O)NC(=O)[C@H](Cc2ccc(F)cc2)NC(=O)CN(CCOC)C(=O)[C@@H](C)N(C)C(=O)[C@H](Cc2cscn2)NC(=O)[C@H](C)N(C)C1=O` [Compound 39, COCC[C@@H]1NC(=O)[C@H]2CCCN2C(=O)[C@H](CC2=CC=CC=C2)N(C)C(=O)[C@H](CC2=CC=C(Cl)C=C2)NC(=O)[C@@H](NC(=O)[C@H](CC2=CC=C(F)C=C2)NC(=O)CN(CCOC)C(=O)[C@@H](C)N(C)C(=O)[C@H](CC2=CSC=N2)NC(=O)[C@H](C)N(C)C1=O)C(C)O] (cyclo([hSer](Me)[NMeA][Ala(4-thiazolyl)][dNMeA][Nme][Phe(4-F)]T[Phe(4-Cl)][NMeF][dP])) gave a pIC50 of 6.82 to 7.00.

Source of the values: patent US20220411471A1, “CELL-PERMEABLE CYCLIC PEPTIDES AND USES THEREOF” (Unnatural Products Inc., priority 2019, published 2022).
